Patent publication US10330673B2, “Fluorescent chemical sensor for biological amines” (The Curators of the University of Missouri, priority 2013, dated 2019)

Tested on: EP-enriched chromaffin cells
Assay: Fixed-cell staining with I-2 and anti-PNMT antibody, EP-enriched cells
Assay type: cell-based, bovine
Details: 585 nm = anti-PNMT/Cy3, 525 nm = I-2 (1 μM), ImageJ
Text: To further validate the selectivity of the inventive sensor, the inventive detection method is validated with an established procedure in which phenylethanolamine N-methyltransferase (PNMT) is stained with an antibody and visualized with a Cy3-conjugated secondary antibody. It has been shown that epinephrine-enriched cell populations gave the highest level of PNMT staining, while norepinephrine-enriched populations gave lower staining (ca. 20% of that with epinephrine-enriched cells). For this experiment, three populations of chromaffin cells (norepinephrine-enriched, epin ephrine-enriched, and mixed) were stained with Compound I-2 and fixed in 4% paraformaldehyde. The fixed cells were stained with the anti-PNMT and secondary antibodies.
Chromaffin cells were isolated from bovine adrenal glands as previously described. […]
NE-enriched cells, EP-enriched cells and mixed cells stained with I-2 (1 μM) and plated on 0.0025% Poly (1-lysine) coated cover slips, after three washed with pre-warmed phosphate-buffered saline (pH=7.4, PBS), were fixed in 4% paraformaldehyde (Sigma, St. Louis, Mo., USA) in PBS for 60 min at room temperature (RT), followed by 6 min in methanol chilled to −20° C. […] After three washed in PBS, bound antibody was detected using Cy™3-conjugated AffiniPure Donkey Anti-Rabbit (1:150 dilution, Jackson ImmunoResearch Laboratories, Inc, Nest Grove, Pa., 19390). […]

CCN(CC)c1ccc2c(-c3ccc(OC)cc3)c(C=O)c(=O)oc2c1 [Compound I-2, 7-diethylamino-3-formyl-4-(4′-methoxyphenyl)coumarin]
average fluorescence intensity at 585 nm vs. 525, epinephrine-enriched relative to norepinephrine-enriched cells: 6 times
